Measurements published in patent US9879303B2, “Chromogenic glucuronidase substrates and uses” (Glycosynth Limited, priority 2013, dated 2018).
Structures can show the parent of a compound that is named as a salt.

Test system: E. coli clinical isolates
Experiment: screen of strains on agar plates (CPS ID 3 or Columbia agar)
Format: cell-based
Parameters: key to colour: Red, Green, Black or Purple mean strong colour; Red, Green, Black or Purple mean strong colour; Red, Green, Black or Purple mean strong colour; Red, Green, Black or Purple mean strong colour; +/− means less colour than strong; Tr means a trace of colour, less than +/−; — means no colour
Details: for colour: 37° C. 18 hours
From the text: In order to obtain a fuller picture of the sensitivity of the substrates, they were screened with 100 different clinical isolates of E. coli in a liquid medium containing FAC. The isolates were chosen at random from the Microbiology Department, Freeman Hospital, Newcastle Upon Tyne, UK. The effectiveness of the new substrates was compared with three other media which all contained indoxyl-β-D-glucuronides. One was a commercial medium, CPS ID 3 (bioMérieux SA, Lyon, France). […] This medium was employed as a control. Among the β-D-glucuronidase producing strains of E. coli there is a large variation in the quantity of the enzyme produced and it is almost certain that the CPS ID 3 medium has been rigorously optimised to allow good growth of all the target organisms and maximum expression of the target enzymes. Therefore, two indoxyl glucuronides, X-β-D-glucuronide CHA salt and Rose-β-D-glucuronide CHA salt were also tested in a simple agar medium to allow a direct comparison of the sensitivity of these Indoxyl glucuronides when used in a medium that has not been optimised for the growth of the target organism. The comparison of the results for Rose-β-D-glucuronide and the CPS ID 3 medium was of particular significance as the commercial medium also uses Rose-β-D-glucuronide for the detection of E. coli. For consistency, the four glucuronides were all chosen as their CHA salts. As already stated, it is not anticipated that the salt form is critical to their performance. Currently. X-β-D-glucuronide is often used as either the CHA salt or the sodium salt. Brenner and colleagues [K. P. Brenner et al, Appl. Environ. Microbiol., 59, 3534-3544, (1993)] found no difference in the performance of the CHA and sodium salt forms with their application using indoxyl-β-D-glucuronide, neither in respect of colour development nor in the recovery of E. coli.
The two indoxyl glucuronides used produce insoluble endpoints following hydrolysis, as does the CPS ID 3 medium. It was therefore necessary to test these two substrates on agar plates. In contrast, catechol-β-D-glucuronide (1) and DHN-β-D-glucuronide (2b) give much more soluble endpoints best suited to liquid media and were therefore tested in a broth medium. Each broth was prepared using proteose peptone (Oxoid, Basingstoke, UK) (2 g), NaCl (1 g) and FAC (100 mg) in DI water (180 mL). This mixture was autoclaved and cooled to room temperature before being dispensed into bijoux (100×1.8 mL). Catechol β-D-glucuronide CHA salt (1) or DHN-β-D-glucuronide CHA salt (2b) (60 mg) were each dissolved in water (20 mL) and filtered to sterilize before being aseptically dispensed into successive bijoux (0.2 mL) containing the broth solution. The broth/substrate solutions were then inoculated with bacterial suspensions made up to 0.5 McFarland standard (2 μL per bijoux). X-β-D-glucuronide CHA salt (Glycosynth Ltd, Warrington, UK) (10 mg) was dissolved in NMP (200 μL). Rose-β-D-glucuronide CHA salt (Glycosynth Ltd, Warrington, UK) (20 mg) was dissolved in NMP (200 μL). These solutions were then added to Columbia agar (Oxoid, Basingstoke, UK) (100 mL) and inoculated with bacterial suspensions made up to 0.5 McFarland standard (1 μL). The plates and broths were incubated at 37° C. for 18 hours in air.

[1] = 100 E. coli strains after 18 h incubation

## O=C(O)[C@H]1O[C@@H](Oc2c[nH]c3ccc(Br)c(Cl)c23)[C@H](O)[C@@H](O)[C@@H]1O [X-β-D-glucuronide CHA salt, 5-bromo-4-chloro-3-indolyl β-D-glucuronide]
[1]
  % Sensitivity: 79%
  Negative strains: 21
  Positive strains: 79
E. coli 260262P
  colour: Green
E. coli 260280Z
  colour: Green
E. coli 260310H
  colour: Green
E. coli 260313A
  colour: —
E. coli 260316T
  colour: —
E. coli 260327V
  colour: Green
E. coli 260330Y
  colour: Green
E. coli 260333P
  colour: —
E. coli 260345F
  colour: Green
E. coli 260348K
  colour: Green
E. coli 260354W
  colour: Green
E. coli 260364H
  colour: —
E. coli 260370C
  colour: Green
E. coli 260375E
  colour: Green
E. coli 260390B
  colour: —
E. coli 260396Z
  colour: Green
E. coli 260398Q
  colour: Green
E. coli 260400N
  colour: —
E. coli 260401Q
  colour: Green
E. coli 260402H
  colour: Green
E. coli 260404W
  colour: Green
E. coli 260405P
  colour: Green
E. coli 260406A
  colour: —
E. coli 260406Y
  colour: Green
E. coli 260407F
  colour: Green
E. coli 260408C
  colour: Green
E. coli 260411Z
  colour: Green
E. coli 260412Q
  colour: Green
E. coli 260414H
  colour: Green
E. coli 260415Y
  colour: Green
E. coli 260416W
  colour: —
E. coli 260417P
  colour: Green
E. coli 260422Y
  colour: Green
E. coli 260424P
  colour: Green
E. coli 260425A
  colour: Green
E. coli 260426F
  colour: Green
E. coli 260428T
  colour: Green
E. coli 260431N
  colour: Green
E. coli 260432E
  colour: Green
E. coli 260433H
  colour: Green
E. coli 260434Y
  colour: Green
E. coli 260435W
  colour: Green
E. coli 260436P
  colour: Green
E. coli 260437A
  colour: —
E. coli 260438F
  colour: Green
E. coli 260439C
  colour: Green
E. coli 260440S
  colour: Green
E. coli 260441G
  colour: Green
E. coli 260458Y
  colour: Green
E. coli 260459W
  colour: Green
E. coli 260463D
  colour: Green
E. coli 260464G
  colour: Green
E. coli 260471B
  colour: —
E. coli 260478N
  colour: —
E. coli 260479Q
  colour: Green
E. coli 260480M
  colour: Green
E. coli 260481J
  colour: Green
E. coli 260483R
  colour: —
E. coli 260485D
  colour: Green
E. coli 260486L
  colour: Green
E. coli 260492J
  colour: Green
E. coli 260494B
  colour: Green
E. coli 260495R
  colour: —
E. coli 260497D
  colour: Green
E. coli 260502G
  colour: Green
E. coli 260503Z
  colour: Green
E. coli 260504N
  colour: Green
E. coli 260505Q
  colour: —
E. coli 260506E
  colour: Green
E. coli 260508Y
  colour: Green
E. coli 260509W
  colour: Green
E. coli 260510R
  colour: Green
E. coli 260511X
  colour: Green
E. coli 260514G
  colour: —
E. coli 260515Z
  colour: —
E. coli 260521S
  colour: Green
E. coli 260522Z
  colour: Green
E. coli 260532S
  colour: Green
E. coli 260533G
  colour: Green
E. coli 260536Q
  colour: Green
E. coli 260537E
  colour: —
E. coli 260538H
  colour: —
E. coli 260539Y
  colour: Green
E. coli 260541R
  colour: Green
E. coli 260545G
  colour: Green
E. coli 260547N
  colour: Green
E. coli 260548Q
  colour: Green
E. coli 260549E
  colour: Green
E. coli 260553X
  colour: —
E. coli 260554D
  colour: Green
E. coli 260555L
  colour: Green
E. coli 260563B
  colour: Green
E. coli 260564R
  colour: Green
E. coli 260578D
  colour: —
E. coli 2603121P
  colour: —
E. coli 2604399E
  colour: Green
E. coli O157 non-toxigenic
  colour: —
In words
  colour of positive colonies: green colonies
